Results reported in patent US7705148B2, “Processes for the preparation of 4-[[4-[[4-(2-cyanoethenyl)-2,6-dimethylphenyl]amino]-2-pyrimidinyl]amino]benzonitrile” (priority 2008, dated 2010).

Key:
[1] = system: resistant mutants of HIV-1 (single and double mutants); assay: Replication inhibiting activity towards resistant mutants of HIV-1; assay type: cell-based; details: single and double mutants of HIV-1
Experimental: Compound X was also tested for its replication inhibiting activity towards resistant mutants of HIV-1 (single and double mutants).

HIV = assay: Determination of anti-HIV activity: inhibition of HIV-induced cytopathic effect in MT-4 cells (MTT); assay type: cell-based, Human Immunodeficiency Virus
Experimental: (§1) A rapid, sensitive and automated assay procedure was used for the in vitro evaluation of anti-HIV agents. An […] T4-cell line, MT-4, which was previously shown (Koyanagi et al., Int. J. Cancer, 36, 445-451, 1985) to be highly susceptible to and permissive for HIV infection, served as the target cell line. Inhibition of the HIV-induced cytopathic effect was used as the end point. The viability of both HIV- and mock-infected cells was assessed spectrophotometrically via the in situ reduction of 3-(4,5-dimethylthiazol-2-yl)-2,5-diphenyltetrazolium bromide (MTT). The 50% cytotoxic concentration (CC50 in M) was defined as the concentration of compound that reduced the absorbance of the mock-infected control sample by 50%. The percent protection achieved by the compound in HIV-infected cells was calculated by the following formula:
(§2) [formula] whereby (ODT)HIV is the optical density measured with a given concentration of the test compound in HIV-infected cells; (ODC)HIV is the optical density measured for the control untreated HIV-infected cells; (ODC)MOCK is the optical density measured for the control untreated mock-infected cells; all optical density values were determined at 540 nm. The dose achieving 50% protection according to the above formula was defined as the 50% inhibitory concentration (IC50 in M). The ratio of CC50 to IC50 was defined as the selectivity index (SI).

[2] = Cytotoxicity in mock-infected MT-4 cells (MTT); assay type: cell-based; details: human, OD 540 nm, read-out: CC50 (50% cytotoxic concentration)
Experimental: as §1, §2

**Q.** For `Cc1cc(/C=C/C#N)cc(C)c1Nc1ccnc(Nc2ccc(C#N)cc2)n1` [Compound X, 4-[[4-[[4-(2-cyanoethenyl)-2,6-dimethylphenyl]amino]-2-pyrimidinyl]amino]benzonitrile (E)], which “replication inhibiting activity against resistant strains” value [1] is on record?
**A.** high activity

**Q.** What about the “SI (selectivity index, ratio of CC50 to IC50)” value (HIV) of the same compound?
**A.** 25,119

**Q.** And the CC50 [2]?
**A.** 10 µM
